Experimental findings from ChEMBL document CHEMBL3871284, “Structure-activity relationship-based screening of antibiotics against Gram-negative Acinetobacter baumannii” (Bioorg Med Chem, 2017) are described below.

Values after ≈ are worked out from the molar mass of the structure shown.

Experiment [1] deals with Pseudomonas aeruginosa. Nature of the experiment: Antimicrobial activity against multidrug resistant Pseudomonas aeruginosa CCARM 2095 after 16 hrs by broth microdilution assay. Type of experiment: functional. The settings on record: CCARM 2095, 16 h. In general terms: In broth dilution the organism is exposed to a series of concentrations in liquid medium.
Experiment [2] relates to Acinetobacter baumannii. As to the kind of experiment: Antimicrobial activity against multidrug resistant Acinetobacter baumannii CCARM 12035 after 16 hrs by broth microdilution assay. Conditions: CCARM 12035, 16 h. Type of experiment: functional.
Experiment [3] concerns Acinetobacter baumannii. As to the kind of experiment: Antimicrobial activity against multidrug resistant Acinetobacter baumannii CCARM 12005 after 16 hrs by broth microdilution assay. Type of experiment: functional. The settings on record: CCARM 12005, 16 h.
In experiment [4] the test system is Staphylococcus aureus. Nature of the experiment: Antimicrobial activity against Methicillin-resistant Staphylococcus aureus 3126 after 16 hrs by broth microdilution assay. The settings on record: Staphylococcus aureus, 3126, 16 h. Type of experiment: functional.
The test system of experiment [5] is Staphylococcus aureus. Nature of the experiment: Antimicrobial activity against Staphylococcus aureus after 16 hrs by broth microdilution assay. Type of experiment: functional.
A short description of experiment [6]: Binding affinity to Acinetobacter baumannii His-tagged KAS3 expressed in Escherichia coli BL21(DE3) by tryptophan emission assay.
Experiment [7] relates to Pseudomonas aeruginosa. Nature of the experiment: Antimicrobial activity against Pseudomonas aeruginosa KCTC 1637 after 16 hrs by broth microdilution assay. The settings on record: KCTC 1637, 16 h. Type of experiment: functional.
Experiment [8] relates to Acinetobacter baumannii. As to the kind of experiment: Antimicrobial activity against Acinetobacter baumannii KCTC 2508 after 16 hrs by broth microdilution assay. Type of experiment: functional. The settings on record: KCTC 2508, 16 h.
Experiment [9] concerns Escherichia coli. As to the kind of experiment: Antimicrobial activity against multidrug resistant Escherichia coli CCARM 1229 after 16 hrs by broth microdilution assay. Type of experiment: functional. Conditions: CCARM 1229, 16 h.
For the next experiment, the system named is Bacillus subtilis. Nature of the experiment: Antimicrobial activity against Bacillus subtilis after 16 hrs by broth microdilution assay. Type of experiment: functional.
Experiment [10] concerns Staphylococcus epidermidis. As to the kind of experiment: Antimicrobial activity against Staphylococcus epidermidis after 16 hrs by broth microdilution assay. Type of experiment: functional.
Experiment [11] concerns Pseudomonas aeruginosa. As to the kind of experiment: Antimicrobial activity against multidrug resistant Pseudomonas aeruginosa CCARM 2163 after 16 hrs by broth microdilution assay. Type of experiment: functional. The settings on record: CCARM 2163, 16 h.
In experiment [12] the test system is Acinetobacter baumannii. Nature of the experiment: Antimicrobial activity against multidrug resistant Acinetobacter baumannii CCARM 12037 after 16 hrs by broth microdilution assay. Type of experiment: functional. Conditions: CCARM 12037, 16 h.
Experiment [13] deals with Staphylococcus aureus. Nature of the experiment: Antimicrobial activity against Methicillin-resistant Staphylococcus aureus isolate 3114 after 16 hrs by broth microdilution assay. Type of experiment: functional. The settings on record: isolate 3114, 16 h.
For experiment [14], the system named is Escherichia coli. As to the kind of experiment: Antimicrobial activity against Escherichia coli KCTC 1682 after 16 hrs by broth microdilution assay. Type of experiment: functional. Conditions: KCTC 1682, 16 h.
The test system of experiment [15] is Acinetobacter baumannii. Nature of the experiment: Antimicrobial activity against multidrug resistant Acinetobacter baumannii CCARM 12036 after 16 hrs by broth microdilution assay. Type of experiment: functional. The settings on record: CCARM 12036, 16 h.
The test system of experiment [16] is Pseudomonas aeruginosa. Nature of the experiment: Antimicrobial activity against multidrug resistant Pseudomonas aeruginosa CCARM 2002 after 16 hrs by broth microdilution assay. Type of experiment: functional. The settings on record: CCARM 2002, 16 h.
Experiment [17] deals with Escherichia coli. As to the kind of experiment: Antimicrobial activity against multidrug resistant Escherichia coli CCARM 1238 after 16 hrs by broth microdilution assay. Type of experiment: functional. Conditions: CCARM 1238, 16 h.

The term MIC denotes the lowest concentration that inhibits growth of the organism. In general, Kd refers to the constant that tells how readily two partners part at equilibrium. Lower therefore signals a tighter complex. On to `COc1ccccc1/C=N/NCc1ccc(C(=O)O)cc1`, for which the MIC in the experiment on Pseudomonas aeruginosa [1], against Acinetobacter baumannii [2], in the experiment on Acinetobacter baumannii [3], in the experiment on Staphylococcus aureus [4], in the experiment with Staphylococcus aureus [5] and in the experiment with Pseudomonas aeruginosa [7] was above 32 µg/mL in each case. Besides, the minimal inhibitory concentration (MIC) (against Acinetobacter baumannii [8]; in the experiment with Escherichia coli [9]; against Bacillus subtilis; in experiment [10]; against Pseudomonas aeruginosa [11]; against Acinetobacter baumannii [12]) was above 32 µg/mL each time. Also, the MIC in the experiment on Staphylococcus aureus [13], in the experiment on Escherichia coli [14], in the experiment with Acinetobacter baumannii [15], against Pseudomonas aeruginosa [16] and against Escherichia coli [17] was above 32 µg/mL in each case. The same compound showed a Kd in experiment [6] of 20.2 µM.
As for `COc1ccc(O)c(/C=N/NCc2cccc(C(F)(F)F)c2)c1`, the MIC with Pseudomonas aeruginosa [1], with Acinetobacter baumannii [2], in the experiment with Acinetobacter baumannii [3], with Staphylococcus aureus [4], against Staphylococcus aureus [5] and with Pseudomonas aeruginosa [7] was above 32 µg/mL in each case. Further, the MIC (in the experiment on Acinetobacter baumannii [8]; in the experiment with Escherichia coli [9]; with Bacillus subtilis; in experiment [10]; with Pseudomonas aeruginosa [11]; against Acinetobacter baumannii [12]) was above 32 µg/mL throughout. Also, the MIC against Staphylococcus aureus [13], against Escherichia coli [14], with Acinetobacter baumannii [15], against Pseudomonas aeruginosa [16] and against Escherichia coli [17] was above 32 µg/mL throughout. In experiment [6], this compound registered a Kd above 100 µM.
Turning to `CCCOc1ccc(/C=N/NCc2ccc(C(F)(F)F)cc2)c(O)c1`, the MIC with Pseudomonas aeruginosa [1], against Acinetobacter baumannii [2], against Acinetobacter baumannii [3], against Staphylococcus aureus [4], against Staphylococcus aureus [5] and against Pseudomonas aeruginosa [7] was above 32 µg/mL throughout. Further, the MIC (against Acinetobacter baumannii [8]; against Escherichia coli [9]; with Bacillus subtilis; in [10]; in the experiment on Pseudomonas aeruginosa [11]; with Acinetobacter baumannii [12]) was above 32 µg/mL in each case. For the same compound, the MIC in the experiment on Staphylococcus aureus [13], with Escherichia coli [14], against Acinetobacter baumannii [15], with Pseudomonas aeruginosa [16] and in the experiment with Escherichia coli [17] was above 32 µg/mL throughout. This compound gave a Kd in experiment [6] of 28.8 µM.
In the case of `COc1ccc(/C=N/NCc2ccc(C)cc2)c(O)c1`, the MIC against Pseudomonas aeruginosa [1], in the experiment on Acinetobacter baumannii [2], in the experiment on Acinetobacter baumannii [3], against Staphylococcus aureus [4], against Staphylococcus aureus [5] and in the experiment with Pseudomonas aeruginosa [7] was above 32 µg/mL throughout. For the same compound, the MIC (in the experiment with Acinetobacter baumannii [8]; against Escherichia coli [9]; in the experiment with Bacillus subtilis; in [10]; in the experiment on Pseudomonas aeruginosa [11]; against Acinetobacter baumannii [12]) was above 32 µg/mL in each case. In addition, the MIC with Staphylococcus aureus [13], against Escherichia coli [14], with Acinetobacter baumannii [15], in the experiment on Pseudomonas aeruginosa [16] and in the experiment on Escherichia coli [17] was above 32 µg/mL each time. The same compound gave a Kd in [6] above 100 µM.
In the case of `COc1ccc(/C=N/NCc2ccc(C(F)(F)F)cc2)c(O)c1`, the MIC with Pseudomonas aeruginosa [1], against Acinetobacter baumannii [2], with Acinetobacter baumannii [3], in the experiment with Staphylococcus aureus [4], against Staphylococcus aureus [5] and against Pseudomonas aeruginosa [7] was above 32 µg/mL in each case. Further, the MIC (with Acinetobacter baumannii [8]; in the experiment on Escherichia coli [9]; against Bacillus subtilis; in experiment [10]; in the experiment with Pseudomonas aeruginosa [11]; in the experiment with Acinetobacter baumannii [12]) was above 32 µg/mL each time. For the same compound, the MIC against Staphylococcus aureus [13], against Escherichia coli [14], with Acinetobacter baumannii [15], against Pseudomonas aeruginosa [16] and in the experiment with Escherichia coli [17] was above 32 µg/mL in each case. Further, binding in [6] was put at a Kd of 22 µM.
Regarding `Oc1ccc(/C=N/NCc2ccc(C(F)(F)F)cc2)c(O)c1`, the MIC with Pseudomonas aeruginosa [1] was above 32 µg/mL; against Acinetobacter baumannii [2] it was 16 µg/mL (≈ 51.6 µM); against Acinetobacter baumannii [3], 8 µg/mL (≈ 25.8 µM); against Staphylococcus aureus [4], 8 µg/mL (≈ 25.8 µM); against Staphylococcus aureus [5], 2 µg/mL (≈ 6.45 µM); against Pseudomonas aeruginosa [7], above 32 µg/mL. The MIC with Acinetobacter baumannii [8] is 16 µg/mL (≈ 51.6 µM); in the experiment with Escherichia coli [9] it was above 32 µg/mL; in the experiment with Bacillus subtilis it was 4 µg/mL (≈ 12.9 µM); in experiment [10] it was 16 µg/mL (≈ 51.6 µM); against Pseudomonas aeruginosa [11], above 32 µg/mL; with Acinetobacter baumannii [12] it was 16 µg/mL (≈ 51.6 µM). Further, the MIC with Staphylococcus aureus [13] is 4 µg/mL (≈ 12.9 µM); against Escherichia coli [14], above 32 µg/mL; in the experiment on Acinetobacter baumannii [15] it was 16 µg/mL (≈ 51.6 µM); in the experiment with Pseudomonas aeruginosa [16], above 32 µg/mL; against Escherichia coli [17], above 32 µg/mL. In addition, the affinity in experiment [6], expressed as Kd, was 0.596 µM.
For `CCOc1ccc(/C=N/NCc2ccc(Cl)c(Cl)c2)c(O)c1`, the MIC against Pseudomonas aeruginosa [1], against Acinetobacter baumannii [2], against Acinetobacter baumannii [3], with Staphylococcus aureus [4], in the experiment on Staphylococcus aureus [5] and in the experiment on Pseudomonas aeruginosa [7] was above 32 µg/mL each time. The MIC (with Acinetobacter baumannii [8]; against Escherichia coli [9]; in the experiment on Bacillus subtilis; in experiment [10]; against Pseudomonas aeruginosa [11]; against Acinetobacter baumannii [12]) was above 32 µg/mL throughout. Besides, the MIC against Staphylococcus aureus [13], in the experiment with Escherichia coli [14], with Acinetobacter baumannii [15], against Pseudomonas aeruginosa [16] and against Escherichia coli [17] was above 32 µg/mL in each case. Also, the Kd in experiment [6] is above 100 µM.
For `CCCOc1ccc(/C=N/NCc2ccc3ccccc3c2)c(O)c1`, the MIC in the experiment with Pseudomonas aeruginosa [1], with Acinetobacter baumannii [2], against Acinetobacter baumannii [3], with Staphylococcus aureus [4], against Staphylococcus aureus [5] and in the experiment with Pseudomonas aeruginosa [7] was above 32 µg/mL each time. Also, the minimal inhibitory concentration (MIC) (in the experiment on Acinetobacter baumannii [8]; against Escherichia coli [9]; against Bacillus subtilis; in [10]; in the experiment with Pseudomonas aeruginosa [11]; in the experiment with Acinetobacter baumannii [12]) was above 32 µg/mL in each case. In addition, the MIC with Staphylococcus aureus [13], against Escherichia coli [14], with Acinetobacter baumannii [15], in the experiment with Pseudomonas aeruginosa [16] and in the experiment on Escherichia coli [17] was above 32 µg/mL throughout. Besides, the Kd in experiment [6] was found to be 21.7 µM.
For `Oc1cccc(Br)c1/C=N/NCc1cccc(C(F)(F)F)c1`, the MIC against Pseudomonas aeruginosa [1], against Acinetobacter baumannii [2], in the experiment on Acinetobacter baumannii [3], against Staphylococcus aureus [4], against Staphylococcus aureus [5] and against Pseudomonas aeruginosa [7] was above 32 µg/mL in each case. Moreover, the MIC (against Acinetobacter baumannii [8]; in the experiment with Escherichia coli [9]; against Bacillus subtilis; in experiment [10]; in the experiment on Pseudomonas aeruginosa [11]; in the experiment with Acinetobacter baumannii [12]) was above 32 µg/mL each time. The MIC in the experiment on Staphylococcus aureus [13], against Escherichia coli [14], in the experiment with Acinetobacter baumannii [15], against Pseudomonas aeruginosa [16] and in the experiment on Escherichia coli [17] was above 32 µg/mL in each case. In addition, the Kd in experiment [6] is above 100 µM.
In the case of `COc1ccc(/C=N/NCc2ccc(C(=O)O)cc2)c(OC)c1`, the MIC in the experiment on Pseudomonas aeruginosa [1], against Acinetobacter baumannii [2], against Acinetobacter baumannii [3], against Staphylococcus aureus [4], against Staphylococcus aureus [5] and against Pseudomonas aeruginosa [7] was above 32 µg/mL each time. The MIC (in the experiment on Acinetobacter baumannii [8]; against Escherichia coli [9]; against Bacillus subtilis; in experiment [10]; with Pseudomonas aeruginosa [11]; in the experiment on Acinetobacter baumannii [12]) was above 32 µg/mL throughout. For the same compound, the MIC in the experiment on Staphylococcus aureus [13], against Escherichia coli [14], against Acinetobacter baumannii [15], in the experiment with Pseudomonas aeruginosa [16] and against Escherichia coli [17] was above 32 µg/mL in each case. The compound further returned a Kd in experiment [6] of 72.5 µM.
